Measurements published in US9862686B2, “N1-sulfonyl-5-fluoropyrimidinone derivatives” (Adama Makhteshim Ltd., priority 2009, dated 2018).
Read-outs that look alike come from different tables or passages of the source. Blank lines part the entries; values can stand above or below the compound they belong to.

Key:
[1] = tested on: Mycosphaerella graminicola; Anamorph: Septoria tritici; Bayer Code SEPTTR; assay: Fungicidal activity: leaf blotch of wheat, protectant and curative treatment of inoculated wheat plants; type: in vivo; settings: Zymoseptoria tritici
Experimental: Evaluation of Fungicidal Activity: Leaf Blotch of Wheat (Mycosphaerella graminicola; Anamorph: Septoria tritici; Bayer Code SEPTTR)
Wheat plants (variety Yuma) were grown from seed in a greenhouse in 50% mineral soil/50% soil-less Metro mix until the first leaf was fully emerged, with 7-10 seedlings per pot. These plants were inoculated with an aqueous spore suspension of Septoria tritici either prior to or after fungicide treatments. After inoculation the plants were kept in 100% relative humidity (one day in a dark dew chamber followed by two to three days in a lighted dew chamber) to permit spores to germinate and infect the leaf. The plants were then transferred to a greenhouse for disease to develop.
The following table presents the activity of typical compounds of the present disclosure when evaluated in these experiments. The effectiveness of the test compounds in controlling disease was determined by assessing the severity of disease on treated plants, then converting the severity to percent control based on the level of disease on untreated, inoculated plants.
In each case of Table II the rating scale is as follows: […]

[2] = 24 h, read-out: SEPTTR 100 PPM 1DP (% Disease Control rating)
[3] = 72 h, read-out: SEPTTR 100 PPM 3DC (% Disease Control rating)

melting point: 182 to 185 °C
Structure (SMILES): O=c1nc(NC(=S)Nc2ccccc2)c(F)cn1S(=O)(=O)c1cccs1 [Cmpd 46]
pest or weed control at 100 ppm ([1]; 24 h, One-Day Protectant (1DP), 100 ppm, wheat plants (variety Yuma), percent control vs untreated inoculated plants, read-out: SEPTTR 100 PPM 1DP (% Disease Control rating)): 0 to 25%
pest or weed control at 100 ppm ([1]; 72 h, Three-Day Curative (3DC), 100 ppm, wheat plants (variety Yuma), percent control vs untreated inoculated plants, read-out: SEPTTR 100 PPM 3DC (% Disease Control rating)): 26 to 50%

Structure (SMILES): O=C(Nc1nc(=O)n(S(=O)(=O)c2ccccc2)cc1F)Oc1ccccc1 [Cmpd 47, (1-benzenesulfonyl-5-fluoro-2-oxo-1,2-dihydropyrimidin-4-yl)carbamic acid phenyl ester]
melting point: 182 to 185 °C
pest or weed control at 100 ppm [1, 2]: 51 to 75%
pest or weed control at 100 ppm [1, 3]: 76 to 100%

Structure (SMILES): COc1ccc(S(=O)(=O)n2cc(F)c(NC(=O)Oc3ccccc3)nc2=O)cc1 [Cmpd 49]
melting point: 138 to 142 °C
pest or weed control at 100 ppm [1, 2]: 0 to 25%
pest or weed control at 100 ppm [1, 3]: 76 to 100%

Structure (SMILES): O=C(Nc1nc(=O)n(S(=O)(=O)c2c(Cl)cccc2Cl)cc1F)Oc1ccccc1 [Cmpd 50]
melting point: 199 to 203 °C
pest or weed control at 100 ppm [1, 2]: 76 to 100%
pest or weed control at 100 ppm [1, 3]: 76 to 100%
